From patent US20050282755A1, “Compositions having antimicrobial activity and uses thereof” (priority 2004, published 2005)
Values after ≈ are worked out from the molar mass of the structure shown. Where two headings read alike, the source gives them in different places. Non-standard residues stand in square brackets, D forms with d. Residues, ends and D or L forms follow the SMILES beside them. *: point of attachment. Stearoyl = CCCCCCCCCCCCCCCCCC(=O)*; Lauroyl = CCCCCCCCCCCC(=O)*

Key:
Jurkat cells = assay type: cell-based; conditions: 16 h
Method: Toxicity of peptide compositions for mammalian cells was determined by using a metabolic viability assay. For this assay 4×10^5 HeLa cells were seeded per well into a microwell plate (50 microliters volume). Jurkat cells also were utilized in separate experiments. The cells were incubated for 16 hours at 37° C. under mammalian cell culture conditions. Two fold serial dilutions for each peptide were prepared and added to the cells (final volume 100 microliters) and incubated for 16 hours at 37° C. For each dilution series control wells containing cells without peptide were included. The metabolic activity and viability of the cells were determined by using a commercially available assay (CellTiter96 assay, Promega Corp.). According to manufacturer's protocol 20 microliters of CellTiter reagent was added to each well and incubated at 37° C. for 1-4 hours. The CellTiter assay is a commercial version of the MTT assay, which measures the conversion of a tetrazolium […] into a colored formazan salt in metabolically active cells. The formation of the formazan product can be measured at 470 nm and is generally accepted as a measure of cellular viability. The cells were incubated at 37° C. and monitored for color development. The conversion of CellTiter reagent was measured at 470 nm using a Versamax plate reader (Molecular Devices). The viability of peptide treated cells is expressed as IC50 (i.e., concentration that leads to a 50% reduction of viability relative to the untreated control). Table 7A reports IC50 values for HeLa cells cultured in OptiMEM or 10% FBS when contacted with peptide compositions from Table 3, and Table 7B reports IC50 values for HeLa cells or Jurkat cells contacted with peptide compositions from Table 3.

HeLa cells = conditions: 16 h
[1] = tested on: Candida albicans ATCC 18804; test: MIC in yeasts, NCCLS M27-A2 broth microdilution, RPMI 1640 (Table 9, letter e); assay type: cell-based; conditions: ATCC 18804
How it was run: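 Broth microdilution per NCCLS M27-A2 in RPMI 1640 with glutamine and phenol red, final inoculum 0.5×10^3–2.5×10^3 CFU/milliliter. Incubated 24 to 48 hours at 37° C; MIC is the lowest peptide concentration with no visible growth.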

[2] = tested on: Propionibacterium acnes ATCC 6919; assay type: cell-based
How it was run: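 MIC by non-standard broth microdilution in reinforced Clostridial broth, log-phase P. acnes inoculum at 5×10^5 to 1×10^6 CFU/mL. Plates were held anaerobically 48–72 h at 37° C; MIC was the lowest peptide concentration with no visible turbidity relative to the no-peptide control.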

[3] = tested on: Staphylococcus aureus ATCC 29213; test: MIC, NCCLS M7-A6 broth microdilution, cation-adjusted Mueller Hinton broth (Table 9, no superscript); assay type: cell-based; conditions: ATCC 29213
How it was run: (§1)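 CAMHB microdilution; final inoculum 5×10^5–1×10^6 CFU/milliliter from log-phase culture; overnight, 37° C; MIC = lowest peptide conc. without visible growth (turbidity) vs no-peptide control.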

Salmonella dublin (Lane) = test: MIC, NCCLS M7-A6 broth microdilution (Table 9, no superscript); assay type: cell-based
How it was run: as §1

[4] = tested on: Escherichia coli ATCC 25922; test: as above; assay type: cell-based; conditions: ATCC 25922
How it was run: as §1

[5] = tested on: Staphylococcus epidermidis ATCC 12228; test: as above; assay type: cell-based; conditions: ATCC 12228
How it was run: as §1

[6] = tested on: Pseudomonas aeruginosa ATCC 27853; test: as above; assay type: cell-based; conditions: ATCC 27853
How it was run: as §1

IL-12 release = test: Anti-inflammation assay: IL-12 release in PBMCs stimulated by P. acnes (IL-12p70 ELISA); assay type: cell-based, human; conditions: for reduction of IL-12 release in PBMs stimulated by P. acnes: 12.5 to 0.78 micrograms per milliliter; for IC50: PBMCs stimulated by P. acnes, over night, read-out: IC50 value, reduction of IL-12 release
Method: An assay that detected reductions in IL-12 released in whole human blood cells (PBMCs) was utilized to detect reductions in inflammation elicited by peptide compositions described herein. The assay utilized the following materials and reagents: whole human blood cells; P. acnes; peptides 55, 67 and 93 from Table 3; IL-12p70 ELISA kit (eBiosciences); RPMI 1640 growth medium; PBS; and a 96-well microtiter plate. PBMCs were prepared from whole human blood cells according to standard procedures and cells were resuspended in RPMI 1640 and 10% FCS. Cells were seeded at 250,000 cells per well in a 96-well microtiter plate and incubated for 90 minutes. […] Controls included untreated cells, P. acnes alone or a peptide alone. The cells were incubated over night at 37° C., and cell supernatants were collected and stored at −80° C. for use in an IL-12 ELISA assay (eBiosciences). A 1:1 dilution of supernatant was utilized to perform the IL-12 ELISA following the protocol provided by the manufacturer.

[7] = tested on: Propionibacterium acnes ATCC 6919; test: MIC, agar dilution method NCCLS M11-A6, Brucella agar, anaerobic (Table 9, superscript c); assay type: cell-based; conditions: letter c: agar dilution NCCLS M11-A6, Brucella agar, anaerobic
How it was run: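 Agar dilution per NCCLS M11-A6 on Brucella agar; final inoculum 1.5×10^8 CFU/milliliter applied to plates, incubated 48-96 hours at 37° C. under anaerobic (GasPak) conditions. MIC = lowest peptide concentration with no colony growth.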

[8] = tested on: Pseudomonas aeruginosa ATCC 27853; conditions: ATCC 27853, pH 7.4

Row | Compound | IC50 (Jurkat cells) [µM] | IC50 (HeLa cells) [µM] | MIC C. albicans [1] [e ug/mL] | MIC P. acnes [2] [µg·days/mL] | MIC S. aureus [3] [µg/mL] | MIC S. dublin (Salmonella dublin (Lane)) [µg/mL] | MIC E. coli [4] [µg/mL] | MIC S. epidermidis [5] [µg/mL] | MIC P. aeruginosa [6] [µg/mL] | reduction of IL-12 release in PBMs stimulated by P. acnes (IL-12 release) | IC50 (IL-12 release) [µM] | MIC P. acnes [7] [c ug/mL] | MIC P. aeruginosa [8] [b ug/mL]
1 | CSCC[C@H](NC(=O)[C@H](Cc1ccccc1)NC(=O)[C@H](CC(N)=O)NC(=O)[C@H](CCCNC(=N)N)NC(=O)[C@H](CO)NC(=O)[C@H](Cc1c[nH]c2ccccc12)NC(=O)[C@H](CC(=O)O)NC(=O)[C@H](CCCNC(=N)N)NC(=O)[C@H](Cc1c[nH]c2ccccc12)NC(=O)[C@H](CCCNC(=N)N)NC(=O)[C@H](CO)NC(=O)[C@H](CCCNC(=N)N)NC(=O)CNC(=O)[C@@H](NC(=O)[C@H](CCCNC(=N)N)NC(=O)[C@H](CO)NC(=O)[C@@H](NC(=O)[C@H](CCCNC(=N)N)NC(=O)[C@@H](NC(C)=O)[C@@H](C)O)C(C)C)[C@@H](C)O)C(=O)N[C@@H](CCCNC(=N)N)C(=O)N[C@@H](C)C(=O)N[C@@H](C)C(N)=O [Peptide 1] | > 100 | > 100 | – | – | – | – | – | – | – | – | – | – | –
2 | CSCC[C@@H](NC(=O)[C@@H](Cc1ccccc1)NC(=O)[C@@H](CC(N)=O)NC(=O)[C@@H](CCCNC(=N)N)NC(=O)[C@@H](CO)NC(=O)[C@@H](Cc1c[nH]c2ccccc12)NC(=O)[C@@H](CC(=O)O)NC(=O)[C@@H](CCCNC(=N)N)NC(=O)[C@@H](Cc1c[nH]c2ccccc12)NC(=O)[C@@H](CCCNC(=N)N)NC(=O)[C@@H](CO)NC(=O)[C@@H](CCCNC(=N)N)NC(=O)CNC(=O)[C@H](NC(=O)[C@@H](CCCNC(=N)N)NC(=O)[C@@H](CO)NC(=O)[C@H](NC(=O)[C@@H](CCCNC(=N)N)NC(=O)[C@H](NC(C)=O)[C@H](C)O)C(C)C)[C@H](C)O)C(=O)N[C@H](CCCNC(=N)N)C(N)=O [Peptide 33, Ac-trvsrtgrsrwrdwsrnfmr-NH2] (Ac-[dT][dR][dV][dS][dR][dT]G[dR][dS][dR][dW][dR][dD][dW][dS][dR][dN][dF][dM][dR]-NH2) | 67.5 | > 100 | 16 | 12.5 | >64 | 64 (≈ 24.1 µM) | >64 | 32 (≈ 12.1 µM) | >64 | – | – | – | –
3 | CCCCCCCCCCCCCCCCCC(=O)N[C@H](C(=O)N[C@@H](CCCNC(=N)N)C(=O)N[C@H](C(=O)N[C@@H](CO)C(=O)N[C@@H](CCCNC(=N)N)C(=O)N[C@H](C(=O)NCC(=O)N[C@@H](CCCNC(=N)N)C(=O)N[C@@H](CO)C(=O)N[C@@H](CCCNC(=N)N)C(=O)N[C@@H](Cc1c[nH]c2ccccc12)C(=O)N[C@@H](CCCNC(=N)N)C(=O)N[C@@H](CC(=O)O)C(=O)N[C@@H](Cc1c[nH]c2ccccc12)C(=O)N[C@@H](CO)C(=O)N[C@@H](CCCNC(=N)N)C(=O)N[C@@H](CC(N)=O)C(=O)N[C@@H](Cc1ccccc1)C(=O)N[C@@H](CCSC)C(=O)N[C@@H](CCCNC(=N)N)C(N)=O)[C@@H](C)O)C(C)C)[C@@H](C)O [Peptide 67] (Stearoyl-TRVSRTGRSRWRDWSRNFMR-NH2) | – | – | – | – | 64 (≈ 22.2 µM) | 64 (≈ 22.2 µM) | – | – | – | dose response of reduction of IL-12 release | – | – | –
4 | CCCCCCCCCCCC(=O)N[C@@H](C(=O)N[C@H](CCCNC(=N)N)C(=O)N[C@@H](C(=O)N[C@H](CO)C(=O)N[C@H](CCCNC(=N)N)C(=O)N[C@@H](C(=O)NCC(=O)N[C@H](CCCNC(=N)N)C(=O)N[C@H](CO)C(=O)N[C@H](CCCNC(=N)N)C(=O)N[C@H](Cc1c[nH]c2ccccc12)C(=O)N[C@H](CCCNC(=N)N)C(=O)N[C@H](CC(=O)O)C(=O)N[C@H](Cc1c[nH]c2ccccc12)C(=O)N[C@H](CO)C(=O)N[C@H](CCCNC(=N)N)C(=O)N[C@H](CC(N)=O)C(=O)N[C@H](Cc1ccccc1)C(=O)N[C@H](CCSC)C(=O)N[C@H](CCCNC(=N)N)C(N)=O)[C@H](C)O)C(C)C)[C@H](C)O [Peptide 76, Lauryl-trvsrtgrsrwrdwsrnfmr-NH2] (Lauroyl-[dT][dR][dV][dS][dR][dT]G[dR][dS][dR][dW][dR][dD][dW][dS][dR][dN][dF][dM][dR]-NH2) | 3.3 | 5.49 | 16 | – | 2 (≈ 0.716 µM) | 16 (≈ 5.73 µM) | 4 (≈ 1.43 µM) | 1 (≈ 0.358 µM) | 32 (≈ 11.5 µM) | – | 1.12 | 64 | –
5 | CCCCCCCCCCCC(=O)N[C@H](CCCNC(=N)N)C(=O)N[C@H](CO)C(=O)N[C@H](CCCNC(=N)N)C(=O)N[C@H](Cc1c[nH]c2ccccc12)C(=O)N[C@H](CCCNC(=N)N)C(=O)N[C@H](CC(=O)O)C(=O)N[C@@H](C(=O)N[C@H](C)C(=O)N[C@H](CCCNC(=N)N)C(=O)N[C@H](CC(N)=O)C(=O)N[C@H](Cc1ccccc1)C(=O)N[C@H](CCSC)C(=O)N[C@H](CCCNC(=N)N)C(N)=O)C(C)C [Peptide 90, Lauryl-rsrwrdvarnfmr-NH2] (Lauroyl-[dR][dS][dR][dW][dR][dD][dV][dA][dR][dN][dF][dM][dR]-NH2) | 5 to 15 | 5 to 15 | 16 | – | 4 (≈ 2.07 µM) | 4 (≈ 2.07 µM) | 4 (≈ 2.07 µM) | 4 (≈ 2.07 µM) | – | – | – | 8 | 3
6 | CSCC[C@H](NC(=O)[C@H](Cc1ccccc1)NC(=O)[C@H](CC(N)=O)NC(=O)[C@H](CCCNC(=N)N)NC(=O)[C@H](CO)NC(=O)[C@@H](NC(=O)[C@H](CC(=O)O)NC(=O)[C@H](CCCNC(=N)N)NC(=O)[C@H](Cc1c[nH]c2ccccc12)NC(=O)[C@H](CCCNC(=N)N)NC(=O)[C@H](CO)NC(=O)[C@H](CCCNC(=N)N)NC(C)=O)C(C)C)C(=O)N[C@@H](CCCNC(=N)N)C(N)=O [Peptide 93, Ac-RSRWRDVSRNFMR-NH2] (Ac-RSRWRDVSRNFMR-NH2) | – | – | – | – | >64 | >64 | >64 | >64 | >64 | dose response of reduction of IL-12 release | 0.8 | – | –
7 | H2N-kkkkkkkkaatrvartgrsrwrdvarnfmr-NH2 (KKKKKKKKAATRVARTGRSRWRDVARNFMR; N-terminal amine, C-terminal amide) [Peptide 55] | – | – | – | – | – | – | – | – | – | – | > 20 | – | –
